This is an account of results in US9880171B2, “iASPP phosphorylation and metastatic potential” (LUDWIG INSTITUTE FOR CANCER RESEARCH LTD., priority 2012, dated 2018).

Each structure is given as a SMILES string.

Experiment [1] relates to iASPP(-/-)MEFs. Kind of experiment: apoptosis markers (c-PARP, c-Caspase 3) in Ras and E1A transformed iASPP(-/-) MEFs. In kind it is cell-based, mouse. The conditions noted are these: vector transfected iASPP(-/-)MEFs, 24 hours. How it is done:
FIG. 9. […] A. iASPP S84D/S113D binds p53 better than WT iASPP in vitro. in vitro translated iASPP-V5 (WT) or its mutant iASPP(S84D/S113D) (S84D/S113D) (Input) were incubated with nickel beads that were pre-bound with either p53(2-193)-His (p53) or BSA (BSA) to carry out an immunoprecipitation assay (IP). The amount of iASPP that was co-immunoprecipitated with p53 was detected by an anti-V5 antibody (iASPP V5 panel) whereas the amount of p53 immunoprecipitated was detected by an anti-His antibody (p53(2-193)-His panel). B iASPP S84D/S113D binds p53 better than WT iASPP in transfected cells. iASPP-V5 (WT) or its mutant iASPP(S84D/S113D) (S84D/S113D) and p53 were co-transfected in H1299 cells (Input). […] The amount of p53 pulled down is shown in (p53 panel) whereas p53 bound iASPP was determined by anti-V5 antibody (iASPP V5 panel). […] The expression levels of known apoptosis markers were detected in immunoblotting using D214 or D175 to detect cleaved PARP (c-PARP) or caspase 3 (c-caspase 3) respectively. […] Cells were dissolved in urea buffer and apoptosis markers (cleaved PARP, caspase-3) were determined by WB.
The anti-apoptotic function of iASPP and its mutant iASPP(S84D/S113D) was tested in Ras and E1A transformed iASPP(−/−)MEFs (referred to as iASPP(−/−)MEFs). […] Apoptosis was measured by the presence of cleaved PARP (c-PARP) or active caspase 3 (c-Caspase 3). […]

The subject of experiment [2] is WM278, Me300 and SK-MEL37 melanoma cell lines. In words: clonogenic survival / colony formation assay, Example 8.
Method: Cells were transfected with siRNA as shown and pre-seeded on 6 well plates ON, 0.3 μM cyclin B1/cdk1 inhibitors K00616a were then added for 48 hours to block iASPP modification. Cells were then treated with 0.3 μM K00616a, 20 μM nutlin3, or combinations of these drugs for another 72 hours. Cells were collected and cell cycle status, growth potential, and protein expression pattern were then determined by PI staining/FACS analysis, colony formation assay, and WB, respectively. […] Cells were pre-seeded on 6 well plates for overnight, 0.3 μM cyclin B1/cdk1 inhibitors K00616a were then added for 48 hours to block iASPP modification. Cells were then treated with 0.3 μM K00616a, 20 μM nutlin3, 1 μM PLX4032, or combinations of these drug for another 72 hours. Cells were collected and cell cycle status, growth potential, and protein expression pattern were then determined by PI staining/FACS analysis, colony formation assay, and WB, respectively.
After drugs treatment, cells were digested, counted, and seed in 6-well plates (100, 1 000, 10 000 cells/well). […]
The ability of K00616a to reactivate wild type p53 function in melanoma cells was tested in three melanoma cell lines that all express B-RAFV600E. […] Wild type p53 function was measured by a p53-dependent apoptosis assay, detecting the percentage of cells containing subG1 DNA content and growth suppression in a clonogenic survival assay.
Experiment [3] concerns iASPP phosphorylated at ser 113. Kind of experiment: phospho-ser113 iASPP western blot in nocodazole-treated U2OS cells. The experiment is classed as cell-based, human. The conditions noted are these: nocodazole 1 μM 16 hours, 0.5 μM JNJ-7706621. The protocol:
For the floating and adherent cells, the rounded (mitotic rich) cells were separated from the adherent cells after 24 hours treatment with nocodazole. Lysates were separated on a 6% SDS PAGE gel and proteins analysed by conventional western blotting. iASPP phosphor-[…] was detected using the antibody from rabbit 42310 as described in FIG. 23A, and total iASPP was detected by re-probing the blot with antibody LX049.3. Nucleolin was used as a loading control. […] Consistent with enhanced iASPP phosphorylation in nocodazole arrested mitotic cells, enhanced iASPP phosphorylation on ser 113 was also observed in the floating cells, which are mostly mitotic cells, and not in adherent cells (FIG. 23B). Total iASPP was detected by re-probing the blot with antibody LX049.3. Additionally, the specific binding of iASPP antibody (42310) to phosphorylated ser 113 were evaluated by determining the failure of iASPP antibody (42310) to bind when the protein is not phosphorylated at ser 113. Since CDK kinase phosphorylates iASPP at ser 113, CDK inhibitor JNJ-7706621 was used to treat human U2OS cells. […] Western blotting was carried out as described in FIG. 23B using an 8% SDS PAGE gel. When compared to untreated cells, binding of phosphor-ser 113 specific […] antibody was not observed in the presence 0.5 μM JNJ-7706621 (FIG. 23C). Total iASPP was detected by re-probing the blot with antibody LX049.3.
For orientation: A western blot detects proteins with antibodies after separation by electrophoresis.

As to `COc1ccc(C2=N[C@@H](c3ccc(Cl)cc3)[C@@H](c3ccc(Cl)cc3)N2C(=O)N2CCNC(=O)C2)c(OC(C)C)c1` [Nutlin3], the “apoptosis (increase in c-PARP and c-Caspase 3)” value in experiment [1] is given as “apoptosis was detected”. In addition, the “growth suppression (colonies)” value in experiment [2] (WM278, Me300 and SK-MEL37, agent alone) is recorded as “limited”. Moreover, the “effect on the growth suppression effects of PLX4032” value in experiment [2] (added alone to PLX4032) is listed as “minimal effect”.
As to `Nc1nc(Nc2ccc(S(N)(=O)=O)cc2)nn1C(=O)c1c(F)cccc1F` [JNJ-7706621], in experiment [3], the “binding of phosphor-ser 113 specific anti-iASPP antibody (iASPP ser 113 phosphorylation)” value is reported as “not observed”.
